Test results from patent publication US11076594B2, “Pyrazolone compound or salt thereof, preparation method therefor, herbicide composition and use thereof” (QINGDAO KINGAGROOT CHEMICAL COMPOUNDS CO., LTD., priority 2015, dated 2021).

Assays:
Format in all cases: in vivo
Set-up in all cases: key: Level 10: completely dead; Level 9: above 95% growth control rate; Level 8: above 90% growth control rate; Level 7: above 80% growth control rate; Level 6: above 70% growth control rate; Level 5: above 60% growth control rate; Level 4: above 50% growth control rate; Level 3: above 20% growth control rate; Level 2: 5%-20% growth control rate; Level 1: below 5% growth control rate
crab grass = experiment: weed control effect in post-emergence stage (Table 1); settings: post-emergence spray at 4-5 leaf stage, 250 g/ha active ingredient with 450 kg/ha water, rated after 3 weeks in greenhouse
Procedure, shortened: (§1)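 Weeds and crops grown in soil-filled pots in a greenhouse were sprayed at the 4-5 leaf stage (2-3 weeks after sowing). Compounds were applied in acetone with tween 80, diluted in water. After 3 weeks' culture, growth control was scored as fresh weight control rate.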

echinochloa = experiment: as above; settings: post-emergence spray at 4-5 leaf stage, 250 g/ha active ingredient with 450 kg/ha water, rated after 3 weeks in greenhouse
Procedure, shortened: as §1

foxtail = experiment: as above; settings: post-emergence spray at 4-5 leaf stage, 250 g/ha active ingredient with 450 kg/ha water, rated after 3 weeks in greenhouse
Procedure, shortened: as §1

rorippa indica = experiment: as above; settings: post-emergence spray at 4-5 leaf stage, 250 g/ha active ingredient with 450 kg/ha water, rated after 3 weeks in greenhouse
Procedure, shortened: as §1

alopecurus japonicas = experiment: wheat field resistant weed control, greenhouse spray at 4 leaf stage; settings: sprayed at 4 leaf stage, 4 weeks after treatment, resistant to ALS and ACCase inhibitor herbicides
Procedure, shortened: (§2)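 Potted plants grown in greenhouse were sprayed at the 4 leaf stage, 2–3 weeks post-sowing, with compound in acetone plus methyl oleate emulsion diluted in water. After 4 weeks of further greenhouse culture, growth control was scored as fresh weight control rate.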

chickweed = experiment: wheat field resistant broadleaf weed control, greenhouse spray at 4 leaf stage; settings: 250 g/ha of the active substance; 4 weeks after treatment; ALS inhibitor resistant
Procedure, shortened: as §2

corn gromwell = experiment: as above; settings: 250 g/ha of the active substance; 4 weeks after treatment; ALS inhibitor resistant
Procedure, shortened: as §2

flixweed = experiment: as above; settings: 250 g/ha of the active substance; 4 weeks after treatment; ALS inhibitor resistant
Procedure, shortened: as §2

shepherd's purse = experiment: as above; settings: 250 g/ha of the active substance; 4 weeks after treatment; ALS inhibitor resistant
Procedure, shortened: as §2

| Compound | weed control effect, Crab grass (level) (crab grass) | weed control effect, Echinochloa (level) (echinochloa) | weed control effect, Green foxtail (level) (foxtail) | weed control effect, Rorippa indica (level) (rorippa indica) | Alopecurus japonicas weed controlling effect (activity level) (alopecurus japonicas; 1 g/mu) | Alopecurus japonicas weed controlling effect (activity level) (alopecurus japonicas; 2 g/mu) | Alopecurus japonicas weed controlling effect (activity level) (alopecurus japonicas; 4 g/mu) | Alopecurus japonicas weed controlling effect (activity level) (alopecurus japonicas; 8 g/mu) | chickweed weed controlling effect (activity level) (chickweed) | corn gromwell weed controlling effect (activity level) (corn gromwell) | flixweed weed controlling effect (activity level) (flixweed) | shepherd's purse weed controlling effect (activity level) (shepherd's purse) |
| --- | --- | --- | --- | --- | --- | --- | --- | --- | --- | --- | --- | --- |
| Cc1nn(C)cc1C(=O)Oc1c(C(=O)c2ccc(C(F)(F)F)c(N3CCCC3=O)c2Cl)c(C)nn1C [Compound 023] | 10 | 10 | 10 | 10 | 1 (Level 1: below 5% growth control rate) | 6 (Level 6: above 70% growth control rate) | 8 (Level 8: above 90% growth control rate) | 10 |  |  |  |  |
| Cc1nn(C)c(O)c1C(=O)c1ccc(C(F)(F)F)c(N2CCCCC2=O)c1Cl [Compound 035] | 8 (Level 8: above 90% growth control rate) | 7 (Level 7: above 80% growth control rate) | 10 | 9 (Level 9: above 95% growth control rate) | 0 | 2 (Level 2: 5%-20% growth control rate) | 6 (Level 6: above 70% growth control rate) | 6 (Level 6: above 70% growth control rate) |  |  |  |  |
| CCOc1c(C(=O)Oc2c(C(=O)c3ccc(C(F)(F)F)c(N4CCCCC4=O)c3Cl)c(C)nn2C)cnn1C [Compound 037] | 6 (Level 6: above 70% growth control rate) | 10 | 10 | 10 |  |  |  |  | 10 | 10 | 10 | 10 |
| CCOc1c(C(=O)Oc2c(C(=O)c3ccc(C(F)(F)F)c(-n4cccn4)c3Cl)c(C)nn2C)cnn1C [Compound 071] | 4 (Level 4: above 50% growth control rate) | 6 (Level 6: above 70% growth control rate) | 8 (Level 8: above 90% growth control rate) | 10 |  |  |  |  | 10 | 10 | 10 | 10 |
| CCOc1c(C(=O)Oc2c(C(=O)c3ccc(C(F)(F)F)c(-n4cc(C)cn4)c3Cl)cnn2C)cnn1C [Compound 081] | 7 (Level 7: above 80% growth control rate) | 10 | 8 (Level 8: above 90% growth control rate) | 10 |  |  |  |  | 10 | 10 | 10 | 10 |
| CCOc1c(C(=O)Oc2c(C(=O)c3ccc(C(F)(F)F)c(-n4cc(C)cn4)c3Cl)c(C3CC3)nn2C)cnn1C [Compound 092] | 3 (Level 3: above 20% growth control rate) | 6 (Level 6: above 70% growth control rate) | 8 (Level 8: above 90% growth control rate) | 10 |  |  |  |  | 10 | 10 | 10 | 10 |
| CCn1nc(C)c(C(=O)c2ccc(C(F)(F)F)c(-n3cccn3)c2Cl)c1OC(=O)c1cn(C)nc1C [Compound 129] | 0 | 10 | 10 | 10 |  |  |  |  | 10 | 10 | 10 | 10 |
